Assays:
Test in all cases: relative viability (nuclei count vs DMSO), 5 days (fraction); higher = more cells survive
VE-821 = compound: CS(=O)(=O)c1ccc(-c2cnc(N)c(C(=O)Nc3ccccc3)n2)cc1 [VE-821]
Method in brief: (§1)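 Acceptance criteria were a control CV below 25% and at least one doubling per plate. Lung cancer cell lines in 1536-well plates got five library-drug doses (not always all listed) √10 apart by pinning and were left 5 days with no medium change. Viability divides treated-well nuclei by vehicle-well nuclei and is the median across plates. Nuclei were counted by MetaXpress from 4× Hoechst images.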

Vismodegib = compound: CS(=O)(=O)c1ccc(C(=O)Nc2ccc(Cl)c(-c3ccccn3)c2)c(Cl)c1 [Vismodegib]
Method in brief: as §1

Ruxolitinib = compound: N#CC[C@H](C1CCCC1)n1cc(-c2ncnc3[nH]ccc23)cn1 [Ruxolitinib]
Method in brief: as §1

VE-821 + Alpelisib = compound: CS(=O)(=O)c1ccc(-c2cnc(N)c(C(=O)Nc3ccccc3)n2)cc1 [VE-821] + Cc1nc(NC(=O)N2CCC[C@H]2C(N)=O)sc1-c1ccnc(C(C)(C)C(F)(F)F)c1 [Alpelisib] (partner 2 µM)
Method in brief: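 Relative viability divides the nuclei count in treated wells by that in vehicle wells. Lung cancer cell lines were seeded in 1536-well plates, dosed by pin tool the next day, and fixed and stained after 5 days in one step with final 0.05% Triton X-100, 1% formaldehyde and 1 ug/ml Hoechst. Dosing was a single drug or a fixed anchor-drug dose plus five library-drug doses (not always all listed) in √10 steps, and values are medians of duplicate plates imaged at 4×.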

Cell Line | relative viability (VE-821; 0.08 µM) | relative viability (VE-821; 0.253 µM) | relative viability (VE-821; 0.8 µM) | relative viability (VE-821; 2.53 µM) | relative viability (VE-821; 8 µM) | relative viability (Vismodegib; 0.08 µM) | relative viability (Vismodegib; 0.253 µM) | relative viability (Vismodegib; 0.8 µM) | relative viability (Vismodegib; 2.53 µM) | relative viability (Vismodegib; 8 µM) | relative viability (Ruxolitinib; 0.08 µM) | relative viability (Ruxolitinib; 0.253 µM) | relative viability (Ruxolitinib; 0.8 µM) | relative viability (Ruxolitinib; 2.53 µM) | relative viability (Ruxolitinib; 8 µM) | relative viability (VE-821 + Alpelisib; first compound 0.08 µM) | relative viability (VE-821 + Alpelisib; first compound 0.253 µM) | relative viability (VE-821 + Alpelisib; first compound 0.8 µM) | relative viability (VE-821 + Alpelisib; first compound 2.53 µM) | relative viability (VE-821 + Alpelisib; first compound 8 µM)
LCLC-97TM1 | 1 | 0.964 | 0.969 | 1.13 | 0.703 | 1 | 0.984 | 0.904 | 0.802 | 0.979 | 0.895 | 0.852 | 0.826 | 0.892 | 0.949 | 0.315 | 0.244 | 0.22 | 0.292 | 0.222
EBC-1 | 1.07 | 0.894 | 0.865 | 1.05 | 0.759 | 0.931 | 0.965 | 1.12 | 0.963 | 1.06 | 0.981 | 1.04 | 1.1 | 0.924 | 0.822 | 0.888 | 0.75 | 0.742 | 0.779 | 0.683
NCI-H661 | 0.986 | 0.998 | 0.976 | 0.997 | 0.919 | 0.973 | 0.975 | 0.997 | 0.909 | 1.02 | 0.958 | 0.963 | 1.04 | 1.03 | 0.92 | 0.693 | 0.705 | 0.573 | 0.765 | 0.559
NCI-H1944 | 1.18 | 0.933 | 0.873 | 1.08 | 0.425 | 1.05 | 1.02 | 0.966 | 0.904 | 1.04 | 1.02 | 0.927 | 0.968 | 0.875 | 0.863 | 0.954 | 0.804 | 0.53 | 0.885 | 0.452
SW 1573 | 1.1 | 1.04 | 1.02 | 1.06 | 0.788 | 0.969 | 0.931 | 1.05 | 0.959 | 0.985 | 1.02 | 0.929 | 1.14 | 0.865 | 0.85 | 1.07 | 0.713 | 0.745 | 0.888 | 0.774
NCI-H1975 | 1.01 | 0.845 | 0.811 | 0.795 | 0.739 | 0.901 | 0.925 | 1.03 | 1.02 | 1.01 | 0.893 | 0.92 | 0.973 | 0.83 | 0.649 | 0.621 | 0.598 | 0.46 | 0.534 | 0.406
EPLC-272H | 1.06 | 0.916 | 1.08 | 1.02 | 0.663 | 0.936 | 0.942 | 0.875 | 0.952 | 0.863 | 0.966 | 0.894 | 0.933 | 0.906 | 0.818 | 0.998 | 0.858 | 0.694 | 1.23 | 0.807
EMC-BAC-2 | 1.18 | 0.896 | 1.02 | 0.965 | 0.858 | 0.99 | 0.953 | 0.903 | 1.01 | 0.934 | 0.974 | 0.946 | 1.06 | 0.978 | 0.678 | 0.877 | 0.782 | 0.721 | 0.75 | 0.757
PC-3 [JPC-3] | 1.03 | 1.07 | 1.07 | 1.06 | 0.971 | 0.977 | 0.999 | 0.986 | 1.02 | 0.986 | 0.818 | 0.941 | 1.02 | 1.03 | 0.908 | 1.05 | 0.957 | 1.02 | 1.05 | 1.04
NCI-H1299 | 1.02 | 0.971 | 0.987 | 0.997 | 0.941 | 1.04 | 0.973 | 1.02 | 1.03 | 1.02 | 1.04 | 1.01 | 1.01 | 0.974 | 0.866 | 1.09 | 1.04 | 1.12 | 1.09 | 1.07
Calu-6 | 1.13 | 0.97 | 0.905 | 0.937 | 0.607 | 1.03 | 0.957 | 1.03 | 1.01 | 1.05 | 1.03 | 1.03 | 1.12 | 0.893 | 0.67 | 0.988 | 0.896 | 0.939 | 0.972 | 0.66
NCI-H1666 | 1.02 | 0.952 | 1.01 | 1.1 | 0.853 | 0.931 | 0.928 | 1 | 0.955 | 1.07 | 1 | 0.987 | 1.07 | 0.884 | 1.1 | 1.03 | 1.02 | 0.887 | 0.926 | 0.58
NCI-H1915 | 1.07 | 0.949 | 1.02 | 1.05 | 0.755 | 1.02 | 1.01 | 0.957 | 0.983 | 0.907 | 0.983 | 1.03 | 1.07 | 0.901 | 0.85 | 1.13 | 1.03 | 1.06 | 1.16 | 0.941
HCC-15 | 1.09 | 0.966 | 1.08 | 1.21 | 0.996 | 1.03 | 0.973 | 0.977 | 1.04 | 0.959 | 1.01 | 0.984 | 1.07 | 0.943 | 0.811 | 0.976 | 0.923 | 1.01 | 0.999 | 0.961
EKVX | 1.12 | 0.997 | 0.937 | 1.08 | 0.855 | 0.797 | 0.945 | 0.944 | 0.968 | 0.941 | 0.753 | 0.836 | 1 | 0.898 | 0.742 | 0.977 | 0.842 | 0.535 | 0.8 | 0.61
NCI-H1792 | 1.26 | 0.817 | 0.842 | 1.37 | 0.824 | 0.854 | 0.877 | 0.941 | 0.928 | 0.922 | 0.871 | 0.761 | 0.856 | 0.822 | 0.561 | 0.846 | 0.919 | 0.584 | 0.587 | 0.681

Source: the supplement of paper PMC10307832
